In this experiment the target is T1, Na^+ /H^+ Exchanger (Homo sapiens, UniProt P19634).
T1 construct: Human Intestinal Cancer Cells (HT-29); endogenous in cells; host or cells: HT-29
T1 sequence (P19634 whole entry): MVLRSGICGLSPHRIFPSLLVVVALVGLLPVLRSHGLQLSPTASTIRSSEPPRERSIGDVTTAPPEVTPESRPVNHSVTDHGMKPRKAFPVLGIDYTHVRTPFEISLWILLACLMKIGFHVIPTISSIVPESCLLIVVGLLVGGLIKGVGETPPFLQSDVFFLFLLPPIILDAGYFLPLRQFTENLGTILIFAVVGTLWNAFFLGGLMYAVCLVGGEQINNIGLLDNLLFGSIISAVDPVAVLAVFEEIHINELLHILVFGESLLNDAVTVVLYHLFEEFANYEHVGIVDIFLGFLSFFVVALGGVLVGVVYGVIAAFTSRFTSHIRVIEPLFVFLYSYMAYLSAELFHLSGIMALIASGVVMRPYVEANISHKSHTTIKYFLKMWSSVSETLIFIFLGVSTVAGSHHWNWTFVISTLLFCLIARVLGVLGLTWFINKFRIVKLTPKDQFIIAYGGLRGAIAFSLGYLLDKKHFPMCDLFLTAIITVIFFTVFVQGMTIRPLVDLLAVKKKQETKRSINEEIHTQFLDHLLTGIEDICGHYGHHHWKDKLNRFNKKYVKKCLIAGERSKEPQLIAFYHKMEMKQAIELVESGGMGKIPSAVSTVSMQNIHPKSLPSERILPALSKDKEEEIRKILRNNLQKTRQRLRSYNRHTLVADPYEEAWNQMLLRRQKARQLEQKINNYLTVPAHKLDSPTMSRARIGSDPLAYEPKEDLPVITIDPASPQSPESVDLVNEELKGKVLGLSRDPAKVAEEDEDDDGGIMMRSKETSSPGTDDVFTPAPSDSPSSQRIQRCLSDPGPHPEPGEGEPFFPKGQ
The experiment is described as follows: Inhibition of the Na^+ /H^+ Exchanger in Human Intestinal Cancer Cells (HT-29). The following applies: HT-29 cells; BCECF fluorescence, cytoplasmic pH; 4 minutes at 37° C., pH 7.0. It counts as cell-based. How it is done: Inhibition of the Na^+ /H^+ Exchanger in Human Intestinal Cancer Cells (HT-29):
HT-29 cells were incubated in growth medium at 37° C., 5% CO2. After 3-5 days the growth medium was removed, the cells were washed and charged with 7.5 μM BCECF-AM (pH-sensitive fluorescent dye) at 37° C. without any CO2. After 30 minutes the cells were washed and acidified with the following medium: 70 mM choline chloride, 20 mM NH4 Cl, […], 1.8 mM CaC2, 5 mM glucose and 15 mM HEPES, pH 7.5.
After 6 minutes incubation at 37° C. without CO2, the cells were washed and incubated for 5 minutes with washing medium: 120 mM choline chloride, 5 mM KCl, 1 mM MgCl2, 1.8 mM CaCl2, 5 mM glucose and 15 mM MOPS, pH 7.0. The washing medium was removed and control medium was added with or without the test compound: 120 mM NaCl, 5 mM KCl, 1 mM MgCl2, 1.8 mM CaCl2, 5 mM glucose, 15 mM MOPS, pH 7.0.
The cells were incubated for 4 minutes at 37° C. without CO2 and measured by fluorimetry (CytoFluor 2350). The fluorescence of the dye BCECF was measured at the excitation wavelengths of 485 nm (pH sensitive) and 440 nm (non pH-sensitive) and at the emission wavelength of 530 nm. The cytoplasmic pH was calculated from the ratio of fluorescences at 485 and 440 nm. The fluorescence ratio was calibrated by measuring the fluorescence signal after equilibration of external and internal pH with nigericin.
One may read the IC50 as the concentration that inhibits the measured activity by half. Compound `CS(=O)(=O)c1cc(C(=O)N=C(N)N)ccc1N1CCN(C(=O)c2cccs2)CC1` [Example 4] registered an IC50 of 31 nM.

`CN(C)CCN1CCN(c2ccc(C(=O)N=C(N)N)cc2S(C)(=O)=O)CC1` [Example 1]: the IC50 stood at 500 nM. The same measure for `CS(=O)(=O)c1cc(C(=O)N=C(N)N)ccc1N1CCN(C(=O)c2ccco2)CC1` [Example 3]: 29 nM.
